In ChEMBL document CHEMBL1201862, “PubChem BioAssay data set” (2004):
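Cultured in 96-well plates, cells were exposed to test compound for 48 hours across five concentrations. The concentration for 50% growth inhibition is given as GI50.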 Activity calls are given as the source filed them. Cut-off read from the data, not from the text of the source: active = GI50 up to about 1.1 µM and inactive = higher.

Tests used:
Experiment in all cases: inhibition of tumour cell growth, NCI panel, 48 h
HCT-116 = system: HCT-116
KM12 = system: KM12
HL-60 = system: HL-60
OVCAR-4 = system: OVCAR-4
DU-145 = system: DU-145
UO-31 = system: UO-31
HCT-15 = system: HCT-15
HOP-62 = system: HOP-62
TK-10 = system: TK-10
RXF 393 = system: RXF 393
EKVX = system: EKVX
SN12C = system: SN12C
UACC-62 = system: UACC-62
SR = system: SR
SK-MEL-5 = system: SK-MEL-5
NCI-H23 = system: NCI-H23
HCC 2998 = system: HCC 2998
HOP-92 = system: HOP-92
SF-268 = system: SF-268
SW-620 = system: SW-620
NCI-H460 = system: NCI-H460
MDA-MB-435 = system: MDA-MB-435
BT-549 = system: BT-549
K562 = system: K562
OVCAR-8 = system: OVCAR-8
A498 = system: A498
U-251 = system: U-251
MOLT-4 = system: MOLT-4
NCI-H226 = system: NCI-H226
SF-295 = system: SF-295
OVCAR-3 = system: OVCAR-3
COLO 205 = system: COLO 205
CCRF-CEM = system: CCRF-CEM
786-0 = system: 786-0
M14 = system: M14
RPMI-8226 = system: RPMI-8226
IGROV-1 = system: IGROV-1
NCI/ADR-RES = system: NCI/ADR-RES
SNB-19 = system: SNB-19
ACHN = system: ACHN
MDA-N = system: MDA-N
Malme-3M = system: Malme-3M
PC-3 = system: PC-3
MDA-MB-231 = system: MDA-MB-231
MCF7 = system: MCF7
UACC-257 = system: UACC-257
SF-539 = system: SF-539
NCI-H522 = system: NCI-H522
LOX IMVI = system: LOX IMVI
T47D = system: T47D
HT-29 = system: HT-29
A549 = system: A549
Hs-578T = system: Hs-578T
SK-OV-3 = system: SK-OV-3
SK-MEL-28 = system: SK-MEL-28

`Cc1nc(C)c(N2CCN(Cc3ccccc3)CC2)c(O)n1` was tested, and the GI50 (HCT-116) was > 100 µM (inactive), the GI50 (KM12) was > 100 µM (inactive) and the GI50 (HL-60) was > 100 µM (inactive). For the same molecule, the GI50 (OVCAR-4) was > 100 µM (inactive), the GI50 (DU-145) was > 100 µM (inactive) and the GI50 (UO-31) was > 100 µM (inactive). The GI50 (HCT-15) was greater than 100 µM, the GI50 (HOP-62) was > 100 µM (inactive) and the GI50 (TK-10) was > 100 µM (inactive). The GI50 (RXF 393) was > 100 µM (inactive), the GI50 (EKVX) was > 100 µM (inactive) and the GI50 (SN12C) was > 100 µM (inactive). For the same molecule, the GI50 (UACC-62) was > 100 µM (inactive), the GI50 (SR) was > 100 µM (inactive) and the GI50 (SK-MEL-5) was > 100 µM (inactive). For the same molecule, the GI50 (NCI-H23) was > 100 µM (inactive), the GI50 (HCC 2998) was > 100 µM (inactive) and the GI50 (HOP-92) was > 100 µM (inactive). For the same molecule, the GI50 (SF-268) was > 100 µM (inactive), the GI50 (SW-620) was > 100 µM (inactive) and the GI50 (NCI-H460) was > 100 µM (inactive). The GI50 (MDA-MB-435) was > 100 µM (inactive), the GI50 (BT-549) was > 100 µM (inactive) and the GI50 (K562) was > 100 µM (inactive). For the same molecule, the GI50 (OVCAR-8) was > 100 µM (inactive), the GI50 (A498) was > 100 µM (inactive) and the GI50 (U-251) was > 100 µM (inactive). For the same molecule, the GI50 (MOLT-4) was > 100 µM (inactive), the GI50 (NCI-H226) was > 100 µM (inactive) and the GI50 (SF-295) was > 100 µM (inactive). The GI50 (OVCAR-3) was > 100 µM (inactive), the GI50 (COLO 205) was > 100 µM (inactive) and the GI50 (CCRF-CEM) was > 100 µM (inactive). For the same molecule, the GI50 (786-0) was > 100 µM (inactive), the GI50 (M14) was > 100 µM (inactive) and the GI50 (RPMI-8226) was > 100 µM (inactive). For the same molecule, the GI50 (IGROV-1) was > 100 µM (inactive), the GI50 (NCI/ADR-RES) was > 100 µM (inactive) and the GI50 (SNB-19) was > 100 µM (inactive). The GI50 (ACHN) was > 100 µM (inactive), the GI50 (MDA-N) was > 100 µM (inactive) and the GI50 (Malme-3M) was > 100 µM (inactive). The GI50 (PC-3) was > 100 µM (inactive), the GI50 (MDA-MB-231) was > 100 µM (inactive) and the GI50 (MCF7) was > 100 µM (inactive). The GI50 (UACC-257) was > 100 µM (inactive), the GI50 (SF-539) was > 100 µM (inactive) and the GI50 (NCI-H522) was > 100 µM (inactive). For the same molecule, the GI50 (LOX IMVI) was > 100 µM (inactive), the GI50 (T47D) was > 100 µM (inactive) and the GI50 (HT-29) was > 100 µM (inactive). The GI50 (A549) was > 100 µM (inactive), the GI50 (Hs-578T) was > 100 µM (inactive) and the GI50 (SK-OV-3) was > 100 µM (inactive). For the same molecule, the GI50 (SK-MEL-28) was > 100 µM (inactive).
